According to paper PMC9963398, “Discovery of New Quinolone-Based Diarylamides as Potent B-RAF^V600E/C-RAF Kinase Inhibitors Endowed with Promising In Vitro Anticancer Activity” (International Journal of Molecular Sciences, 2023):

Columns and labels:
Assay in all cases: NCI-60 five-dose SRB assay
Assay type in all cases: cell-based
A498 = details: Homo sapiens; A498, Renal cancer, five-dose test
Procedure: (§1) The anticancer screening of target compounds over a full panel of 60 human cancer cell lines was carried out using Sulforhodamine B (SRB) assay at the National Cancer Institute (NCI), Bethesda, Maryland, USA, employing the standard protocol.

A549/ATCC = details: Homo sapiens, NSCL cancer, five-dose test
Procedure: as §1

ACHN = details: Homo sapiens, Renal cancer, five-dose test
Procedure: as §1

BT-549 = details: Homo sapiens; BT-549, Breast cancer, five-dose test
Procedure: as §1

COLO 205 = details: Homo sapiens; COLO 205, Colon cancer, five-dose test
Procedure: as §1

DU-145 = details: Homo sapiens; DU-145, Prostate cancer, five-dose test
Procedure: as §1

EKVX = details: Homo sapiens, NSCL cancer, five-dose test
Procedure: as §1

HCC-2998 = details: Homo sapiens; HCC-2998, Colon cancer, five-dose test
Procedure: as §1

HCT-116 = details: Homo sapiens; HCT-116, Colon cancer, five-dose test
Procedure: as §1

HCT-15 = details: Homo sapiens; HCT-15, Colon cancer, five-dose test
Procedure: as §1

HT29 = details: Homo sapiens, HT-29; HT29, Colon cancer, five-dose test
Procedure: as §1

IGROV1 = details: Homo sapiens, IGROV-1; IGROV1, Ovarian cancer, five-dose test
Procedure: as §1

K-562 = details: Homo sapiens, K562; K-562, Leukemia, five-dose test
Procedure: as §1

LOX IMVI = details: Homo sapiens, Melanoma, five-dose test
Procedure: as §1

MALME-3M = details: Homo sapiens, Melanoma, five-dose test
Procedure: as §1

MCF7 = details: Homo sapiens; MCF7, Breast cancer, five-dose test
Procedure: as §1

MDA-MB-435 = details: Homo sapiens; MDA-MB-435, Melanoma, five-dose test
Procedure: as §1

NCI-H23 = details: Homo sapiens; NCI-H23, NSCL cancer, five-dose test
Procedure: as §1

NCI-H322M = details: Homo sapiens, NSCL cancer, five-dose test
Procedure: as §1

NCI-H460 = details: Homo sapiens; NCI-H460, NSCL cancer, five-dose test
Procedure: as §1

NCI-H522 = details: Homo sapiens; NCI-H522, NSCL cancer, five-dose test
Procedure: as §1

OVCAR-3 = details: Homo sapiens; OVCAR-3, Ovarian cancer, five-dose test
Procedure: as §1

OVCAR-4 = details: Homo sapiens; OVCAR-4, Ovarian cancer, five-dose test
Procedure: as §1

OVCAR-5 = details: Homo sapiens; OVCAR-5, Ovarian cancer, five-dose test
Procedure: as §1

OVCAR-8 = details: Homo sapiens; OVCAR-8, Ovarian cancer, five-dose test
Procedure: as §1

RPMI-8226 = details: Homo sapiens; RPMI-8226, Leukemia, five-dose test
Procedure: as §1

RXF 393 = details: Homo sapiens; RXF 393, Renal cancer, five-dose test
Procedure: as §1

SF-268 = details: Homo sapiens; SF-268, CNS cancer, five-dose test
Procedure: as §1

SF-295 = details: Homo sapiens; SF-295, CNS cancer, five-dose test
Procedure: as §1

SF-539 = details: Homo sapiens; SF-539, CNS cancer, five-dose test
Procedure: as §1

SK-MEL-28 = details: Homo sapiens; SK-MEL-28, Melanoma, five-dose test
Procedure: as §1

SK-MEL-2 = details: Homo sapiens; SK-MEL-2, Melanoma, five-dose test
Procedure: as §1

SK-MEL-5 = details: Homo sapiens; SK-MEL-5, Melanoma, five-dose test
Procedure: as §1

SK-OV-3 = details: Homo sapiens; SK-OV-3, Ovarian cancer, five-dose test
Procedure: as §1

SN12C = details: Homo sapiens, Renal cancer, five-dose test
Procedure: as §1

SNB-19 = details: Homo sapiens; SNB-19, CNS cancer, five-dose test
Procedure: as §1

SNB-75 = details: Homo sapiens; SNB-75, CNS cancer, five-dose test
Procedure: as §1

T-47D = details: Homo sapiens, T47D, Breast cancer, five-dose test
Procedure: as §1

TK-10 = details: Homo sapiens; TK-10, Renal cancer, five-dose test
Procedure: as §1

U251 = details: Homo sapiens, U-251; U251, CNS cancer, five-dose test
Procedure: as §1

UACC-257 = details: Homo sapiens; UACC-257, Melanoma, five-dose test
Procedure: as §1

UACC-62 = details: Homo sapiens; UACC-62, Melanoma, five-dose test
Procedure: as §1

CCN1CCN(Cc2ccc(C(=O)Nc3cccc(Nc4ccc5c(OC)cccc5n4)c3)cc2C(F)(F)F)CC1 [Compound 14c, 4-((4-ethylpiperazin-1-yl)methyl)-N-(3-((5-methoxyquinolin-2-yl)amino)phenyl)-3-(trifluoromethyl)benzamide]
GI50 (A498): 11.8 µM | GI50 (A549/ATCC): 2.5 µM | GI50 (ACHN): 1.85 µM | GI50 (BT-549): 5.35 µM | GI50 (COLO 205): 1.74 µM | GI50 (DU-145): 2.55 µM | GI50 (EKVX): 4.06 µM | GI50 (HCC-2998): 1.59 µM | GI50 (HCT-116): 1.45 µM | GI50 (HCT-15): 1.58 µM | GI50 (HT29): 1.76 µM | GI50 (IGROV1): 3.09 µM | GI50 (K-562): 2.11 µM | GI50 (LOX IMVI): 1.45 µM | GI50 (MALME-3M): 1.44 µM | GI50 (MCF7): 1.5 µM | GI50 (MDA-MB-435): 1.36 µM | GI50 (NCI-H23): 2.37 µM | GI50 (NCI-H322M): 3.5 µM | GI50 (NCI-H460): 1.47 µM | GI50 (NCI-H522): 1.7 µM | GI50 (OVCAR-3): 1.8 µM | GI50 (OVCAR-4): 2.89 µM | GI50 (OVCAR-5): 3.28 µM | GI50 (OVCAR-8): 6.78 µM | GI50 (RPMI-8226): 2.24 µM | GI50 (RXF 393): 1.63 µM | GI50 (SF-268): 2.17 µM | GI50 (SF-295): 1.52 µM | GI50 (SF-539): 1.37 µM | GI50 (SK-MEL-28): 1.56 µM | GI50 (SK-MEL-2): 10.7 µM | GI50 (SK-MEL-5): 1.45 µM | GI50 (SK-OV-3): 12.6 µM | GI50 (SN12C): 3.62 µM | GI50 (SNB-19): 1.65 µM | GI50 (SNB-75): 1.2 µM | GI50 (T-47D): 2.11 µM | GI50 (TK-10): 8.67 µM | GI50 (U251): 1.69 µM | GI50 (UACC-257): 1.51 µM | GI50 (UACC-62): 1.53 µM

COc1cccc2nc(Nc3ccc(F)c(NC(=O)c4ccc(CN5CCN(C)CC5)c(C(F)(F)F)c4)c3)ccc12 [Compound 15a, N-(2-fluoro-5-((5-methoxyquinolin-2-yl)amino)phenyl)-4-((4-methylpiperazin-1-yl)methyl)-3-(trifluoromethyl)benzamide]
GI50 (A498): 16.9 µM | GI50 (A549/ATCC): 12.2 µM | GI50 (ACHN): 16.5 µM | GI50 (BT-549): 10.5 µM | GI50 (COLO 205): 17.2 µM | GI50 (DU-145): 12.9 µM | GI50 (EKVX): 14.7 µM | GI50 (HCC-2998): 18.8 µM | GI50 (HCT-116): 8.75 µM | GI50 (HCT-15): 13.4 µM | GI50 (HT29): 3.61 µM | GI50 (IGROV1): 14.5 µM | GI50 (K-562): 3.59 µM | GI50 (LOX IMVI): 13.8 µM | GI50 (MALME-3M): 11.7 µM | GI50 (MCF7): 12.3 µM | GI50 (MDA-MB-435): 15.1 µM | GI50 (NCI-H23): 15.5 µM | GI50 (NCI-H322M): 15.2 µM | GI50 (NCI-H460): 15.9 µM | GI50 (NCI-H522): 16 µM | GI50 (OVCAR-3): 14.4 µM | GI50 (OVCAR-4): 13.9 µM | GI50 (OVCAR-5): 16.1 µM | GI50 (OVCAR-8): 15.8 µM | GI50 (RPMI-8226): 9.3 µM | GI50 (RXF 393): 3.71 µM | GI50 (SF-268): 11.1 µM | GI50 (SF-295): 17.1 µM | GI50 (SF-539): 12.4 µM | GI50 (SK-MEL-28): 15.3 µM | GI50 (SK-MEL-2): 16.1 µM | GI50 (SK-MEL-5): 15.5 µM | GI50 (SK-OV-3): 15.7 µM | GI50 (SN12C): 13.4 µM | GI50 (SNB-19): 17.2 µM | GI50 (SNB-75): 9.09 µM | GI50 (T-47D): 14.8 µM | GI50 (TK-10): 16.4 µM | GI50 (U251): 13.4 µM | GI50 (UACC-257): 16.3 µM | GI50 (UACC-62): 16.2 µM

COc1ccc2nc(Nc3cccc(NC(=O)c4ccc(CN5CCN(C)CC5)c(C(F)(F)F)c4)c3)ccc2c1 [Compound 16a, N-(3-((6-methoxyquinolin-2-yl)amino)phenyl)-4-((4-methylpiperazin-1-yl)methyl)-3-(trifluoromethyl)benzamide]
GI50 (A498): 7.35 µM | GI50 (A549/ATCC): 4.36 µM | GI50 (ACHN): 4.88 µM | GI50 (BT-549): 5.58 µM | GI50 (COLO 205): 5.78 µM | GI50 (DU-145): 5.24 µM | GI50 (EKVX): 4.53 µM | GI50 (HCC-2998): 5.25 µM | GI50 (HCT-116): 2.41 µM | GI50 (HCT-15): 1.18 µM | GI50 (HT29): 1.32 µM | GI50 (IGROV1): 6.22 µM | GI50 (K-562): 0.882 µM | GI50 (LOX IMVI): 1.55 µM | GI50 (MALME-3M): 4.62 µM | GI50 (MCF7): 1.37 µM | GI50 (MDA-MB-435): 5.73 µM | GI50 (NCI-H23): 5.06 µM | GI50 (NCI-H322M): 6.06 µM | GI50 (NCI-H460): 1.88 µM | GI50 (NCI-H522): 4.88 µM | GI50 (OVCAR-3): 5.89 µM | GI50 (OVCAR-4): 4.32 µM | GI50 (OVCAR-5): 6.1 µM | GI50 (OVCAR-8): 5.82 µM | GI50 (RPMI-8226): 3.14 µM | GI50 (RXF 393): 1.75 µM | GI50 (SF-268): 5.2 µM | GI50 (SF-295): 3.41 µM | GI50 (SF-539): 2.08 µM | GI50 (SK-MEL-28): 5.33 µM | GI50 (SK-MEL-2): 5.98 µM | GI50 (SK-MEL-5): 5.1 µM | GI50 (SK-OV-3): 5.99 µM | GI50 (SN12C): 5.49 µM | GI50 (SNB-19): 6.14 µM | GI50 (SNB-75): 0.684 µM | GI50 (T-47D): 4.12 µM | GI50 (TK-10): 6.52 µM | GI50 (U251): 3.77 µM | GI50 (UACC-257): 4.35 µM | GI50 (UACC-62): 6.45 µM
